# Test results reported in PubChem BioAssay (NCI).
#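 Interpolation was linear, between the two tested concentrations surrounding the appropriate level; five concentrations were tested over 48 hours in 96-well plates. Abbreviation: GI50, concentration required for 50% inhibition of growth. Definition used: TGI = concentration required for complete inhibition of growth.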
# Experiments:
# Experiment in all cases: growth of human tumour cells (NCI), 48 h
# LXFL 529 NSCLC = tested on: LXFL 529 NSCLC
# M19-MEL melanoma = tested on: M19-MEL melanoma
# BT-549 breast = tested on: BT-549 breast
# DU-145 prostate = tested on: DU-145 prostate
# HS 578T breast = tested on: HS 578T breast
# PC-3 prostate = tested on: PC-3 prostate
# T-47D breast = tested on: T-47D breast
# DMS 273 small cell lung = tested on: DMS 273 small cell lung
# KM20L2 colon = tested on: KM20L2 colon
# MDA-N = tested on: MDA-N
Compound,TGI (LXFL 529 NSCLC) [µM],TGI (M19-MEL melanoma) [µM],TGI (BT-549 breast) [µM],TGI (DU-145 prostate) [µM],TGI (HS 578T breast) [µM],TGI (PC-3 prostate) [µM],TGI (T-47D breast) [µM],TGI (DMS 273 small cell lung) [µM],TGI (KM20L2 colon) [µM],TGI (MDA-N) [µM],other results
Cc1cccc(NC(N)=S)c1,> 100,> 100,–,–,–,–,–,–,–,–,–
COc1ccc2c(c1)C(=O)c1c-2n(CCCCl)c(=O)c2cc([N+](=O)[O-])ccc12,–,–,> 100,> 100,> 100,> 100,> 100,–,–,–,GI50 (BT-549 breast): 1.56 µM; GI50 (DU-145 prostate): 0.0361 µM; GI50 (HS 578T breast): > 68.9 µM; GI50 (PC-3 prostate): 1.68 µM
CN(C)C=O.CN(C)C=O.CN1C(C(=O)Nc2ccccn2)=C([O-])c2ccccc2S1(=O)=O.CN1C(C(=O)Nc2ccccn2)=C([O-])c2ccccc2S1(=O)=O.[Cu+2],> 100,> 100,–,–,–,–,–,> 100,> 100,–,GI50 (DMS 273 small cell lung): 35.9 µM; GI50 (KM20L2 colon): > 100 µM; GI50 (LXFL 529 NSCLC): 27.8 µM; GI50 (M19-MEL melanoma): 31 µM
N=C(N)SC(c1ccccc1)c1ccccc1,–,–,37.2,25.4,> 100,27.3,22.6,–,–,26.5,–
Nc1ccc([As](=O)(O)O)cc1,–,–,> 100,> 100,> 100,> 100,> 100,–,–,> 100,–
Cn1ncc2c(=O)[nH]c(-c3ccccc3)nc21,–,–,–,–,–,–,–,> 100,> 100,–,–
CC(C)(c1ccccc1)c1ccc(Oc2ccc3c(c2)-c2nc-3nc3[nH]c(nc4nc(nc5[nH]c(n2)c2ccc(Oc6ccc(C(C)(C)c7ccccc7)cc6)cc52)-c2cc(Oc5ccc(C(C)(C)c6ccccc6)cc5)ccc2-4)c2ccc(Oc4ccc(C(C)(C)c5ccccc5)cc4)cc32)cc1,> 100,> 100,–,–,–,–,–,> 100,> 100,–,–
O=C(Nc1ccc(-n2ccc3c(NC(=O)c4ccccc4)ncnc32)cc1)Nc1ccc(Cl)c(C(F)(F)F)c1,–,–,–,4.61,4.61,3.01,5.73,–,–,–,GI50 (DU-145 prostate): 2.12 µM; GI50 (HS 578T breast): 1.27 µM; GI50 (PC-3 prostate): 1.25 µM; GI50 (T-47D breast): 2.27 µM
O=C(O)\C=C/C=C/C=C/C=C/C(=O)O,> 100,–,–,–,–,–,–,> 100,> 100,–,–
CCCCCCCCCCCCCCC(C(=O)[O-])[n+]1ccccc1 (stereo not given),–,–,> 100,> 100,> 100,77.6,> 100,–,–,> 100,–
Cc1cc(N2CCCCC2)nc(NCc2cc(Nc3ccnc4cc(Cl)ccc34)ccc2F)n1,–,–,–,3.14,4.62,4.04,2.99,–,–,–,GI50 (DU-145 prostate): 1.49 µM; GI50 (HS 578T breast): 2.03 µM; GI50 (PC-3 prostate): 1.9 µM; GI50 (T-47D breast): 1.26 µM
CC(C)C(C)C(O)C(O)C(C)C1CCC2C3COC(=O)C4CC(O)C(O)CC4(C)C3CCC12C (stereo not given),–,–,> 100,> 100,> 100,> 100,> 100,–,–,> 100,–
NS(=O)(=O)c1ccc(C(=O)O)cc1,–,–,> 100,> 100,> 100,> 100,> 100,–,–,> 100,–
COc1ccc(C(=O)NNC(=O)c2nsc3ccccc23)cc1,> 100,> 100,–,–,–,–,–,> 100,> 100,–,–
NC(CCCNc1ccc(O)cc1)C(=O)O (stereo not given),33.3,32.7,–,–,–,–,–,> 100,> 100,–,–
CC1(C)CCCC2(C)C3=C(CCC12)C(=O)OC3 (stereo not given),–,–,> 100,> 100,> 100,> 100,> 100,–,–,> 100,–
COC(=O)C12OCC34C(CC5C(C)C6=CC(=O)OC6=CC5(C)C3C(O)C1O)OC(=O)C(OC(C)=O)C24 (stereo not given),31.5,40.9,–,–,–,–,–,30.2,33.3,–,–
Cn1c(=O)c2c(nc(N3CCOCC3)n2CCCNCC(O)c2ccc(O)c(O)c2)n(C)c1=O (stereo not given),–,–,> 100,> 100,> 100,> 100,> 100,–,–,–,–
O=C1CC(c2ccccc2)NCCCCN2CC(CN1)C(C(O)c1ccccc1)C2=O (stereo not given),–,–,> 100,> 100,> 100,> 100,> 100,–,–,> 100,–
CC1(C)CCc2cc3c(cc2O1)OC(C)(C)CC3=O,> 100,> 100,–,–,–,–,–,> 100,–,–,–
CCc1cc(C)cc2[n+]1CC=C2C,> 100,> 100,–,–,–,–,–,> 100,> 100,–,–
